The test system of one assay is HeLa cells. Briefly: Flow-cytometric cell cycle analysis of HeLa cells. Format: cell-based, human. As to conditions: 6 mM sodium butyrate, 16 hours. As for the experimental part:
“Contr.”: untreated control. The different phases of the cell cycle are indicated (G1, S, G2, respectively). Lower part: quantification of the number of cells during the cell cycle (means of three independent experiments).
Cells were harvested by trypsinisation, washed twice with phosphate-buffered saline (PBS) and fixed overnight with 70% ethanol. The cells were resuspended in PBS containing 40 μg/ml of DNase-free RNase A and 50 μg/ml propidium iodide and cell cycle distribution was measured in a fluorescence-activated cell sorter (FACSort) from Becton Dickinson, San Jose, USA. DNA content was quantified by using the “Cell Quest” software (Becton Dickinson, San Jose, USA).
In order to elucidate the molecular effects of histone deacetylase inhibition in the context of HPV16/18-induced carcinogenesis, the HPV18-positive cervical carcinoma cell line HeLa as well as primary human foreskin keratinocytes, which were separately immortalized with amphotropic retroviruses carrying the open reading frames of HPV16 E6, E7 or E6/E7 were used in the experiments of the present invention. In order to assess the specific impact of histone deacetylase inhibition on cell proliferation, flow cytometric analysis of cellular DNA content was carried out (FIG. 1). […]

Another assay has as its system "1637" cells. Briefly: Flow-cytometric cell cycle analysis of "1637" keratinocytes (HPV-16 E6/E7 under HPV16 URR). The assay is classed as cell-based, human. The conditions noted are these: 6 mM sodium butyrate, 16 hours. The source says: (B) Flow-cytometric analysis. Quantification of the proportion of cells in the cell cycle phases G1, S and G2/M (standard deviations are the mean of three independent experiments).
HPV18-positive cervical Carcinoma cells (HeLa) were maintained in Dulbecco's modified Eagle's medium (DMEM), supplemented with 10% fetal calf serum (Gibco BRL, Rockville, USA), 1% penicillin and streptomycin (Sigma, Deisenhofen, Deutschland). Primary human keratinocytes, immortalized by E6-, E7- and E6/E7-open reading frames carrying amphotroptic retroviruses were cultivated in “Keratinocyte Medium Kit” (Sigma). Human foreskin keratinocytes transformed with HPV-16 E6/E7 either under the control of a human β-actin promoter (,1321″) or under the control of the authentic upstream regulatory region HPV (,1637″) were a kind gift of Dr. R. Schlegel (Georgetown University, Washington, USA) (Münger et al., J. Virol. 63 (1989), 4414-4423; Villa & Schlegel, Virology 181 (1991), 374-377). […]
Cells were harvested by trypsinisation, washed twice with phosphate-buffered saline (PBS) and fixed overnight in 70% ethanol. […] Cell cycle analysis and quantification of flow cytometric data was performed according to Dean and Jett, J. Cell. […]

The next assay concerns HPV18 E7. Briefly: Western blot of HPV18 E7 in HeLa cells. Format: cell-based. As for the experimental part: (C) Western blot analysis. 75 μg of total cellular protein was loaded on a 12% SDS-PAGE gel. After electrotransfer, the filters were consecutively incubated with HPV18 E7 and a monoclonal actin antibody.
(A) Western blot analysis. 75 μg of total cellular protein was loaded on a 12% SDS-PAGE gel. After electrotransfer, the filters were incubated with antibodies directed against HPV18 E7, p21^CIP1 (=p21), p27^KIP1 (=p27) and cdk2.
(§1) Cellular extracts were separated in 8-12% SDS PAGE gels and electrotransferred as described elsewhere (Finzer et al., Oncogene 19 (2000), 3235-3244; Soto et al., Oncogene 18 (1999), 3187-3198). The following antibodies were used: cyclin E (HE 12), cyclin D 1 (HD 11), cdk2 (M2), (D-12; Santa Cruz Biotechnology, Inc., Santa Cruz, USA), cdk4 (C-22), cdk6 (C-21), p27^KIP1 (C-19), (K25020), p45^SKP2 (N-19), HPV18-E7 (N-19) and E2F-1 (KH95) (Santa Cruz Biotechnology, Inc. Santa Cruz, USA), p21^CIP1 (C24420; Transduction Laboratories, Lexington, USA), pRB (NCL-RB; Novocastra, UK), p16^INK4 (15126E, Pharmingen, San Diego, USA) and HPV 16 E7 (ZYMED Lab. Inc., San Francisco, USA). Cyclin A was kindly provided by M. Pagano (Pagano et al., EMBO J. 11 (1992), 961-971). Equal protein transfer and loading was routinely checked by incubating the filters with a monoclonal actin antibody (ICN Biomedicals, Ohio, USA).
Background: Immunoblotting shows a protein as a band on a membrane.

The test system of another assay is cdk4. As to the kind of experiment: Western blot of cdk4 in HeLa cells. The assay is classed as cell-based, human. As to conditions: 6 mM sodium butyrate, 16 hours. As for the experimental part: 50 μg of protein were separated on 12% SDS-PAGE minigels. After electrotransfer, the filters were incubated with antibodies against cyclin D1, cyclin E, cyclin A or cdk2, cdk4 or cdk6 specific antibodies. Equal protein loading was confirmed by reincubating the filters with a monoclonal actin antibody.
as §1

The next assay relates to p27KIP1. As to the kind of experiment: Western blot of p27KIP1 in "1321" and "1637" keratinocytes. The assay is classed as cell-based, human. The conditions noted are these: "1321" and "1637" cells, 6 mM sodium butyrate, 16 hours. As for the experimental part: (B) 75 μg of protein was separated in 12% SDS-PAGE gels as described above (see FIG. 2).
as §1

Structures are written as SMILES.

For `CCCC(=O)[O-].[Na+]` [sodium butyrate], in the assay on HeLa cells (untreated 24.9%), the “number of cells in S-phase” value was found to be 8.5%. This compound displayed a G1 fraction in the assay with HeLa cells (untreated 56.8%) of 75.7%. Also, the “proportion of cells within S-phase” value with "1637" cells ("1621" as printed, untreated 24.9%) came out at 4.7%. Also, the “cells in G1” value with "1637" cells ("1621" keratinocytes as printed, untreated 65.3%) is listed as 81.2%. For the same compound, in the assay with HPV18 E7 (6 mM sodium butyrate, 16 hours), the “HPV18 E7 oncoprotein expression under growth arrest” value is on record as “E7 oncogene-expression could be discerned”. Moreover, the “HPV18 E7 oncoprotein, time course” value with HPV18 E7 (NaB, six hours after application) is reported as “significant reduction”. Besides, the cdk4 expression entry with cdk4 is given as “neither the cyclin-dependent kinase 2 (cdk2) nor cdk4 or cdk6 revealed any significant influence on their expression rates”. In addition, the p27KIP1 level entry in the assay with p27KIP1 is given as “increased to the same extent”.

These data come from patent publication US20040132817A1, “Use of an histone deacetylase inhibitor for the treatment of diseases associated with an hpv infection” (priority 2001, published 2004).
